According to US20150174123A1, “OXABICYCLOHEPTANES AND OXABICYCLOHEPTENES FOR THE TREATMENT OF REPERFUSION INJURY” (priority 2012, published 2015):
Where “and” joins values, the source holds several entries; their conditions need not be identical. Identical values can stand only once. Entries after “also recorded” stand apart in the source; their conditions may differ. Like-named read-outs stand apart in the source and are kept apart here.

Legend:
[1] = Example 5: sepsis, vascular leakage and endothelial dysfunction from reperfusion injury; format: in vivo; settings: subject suffering from sepsis; no data given
Akt [2] = assay: Example 3: phosphorylation and activation of Akt in mammalian cells; format: cell-based; settings: mammalian cells incl. cardiac, brain, endothelial cells; no data given
PP2A [3] = target: PP2A (Homo sapiens, UniProt P67775); settings: cited from earlier work; for PP2A inhibition: statement in words
[4] = given orally to mice; cited from earlier work
mammalian tissue = assay: Example 4: reperfusion injury in mammalian tissue that has suffered an ischemia; format: in vivo; settings: mammalian tissue after ischemia; no data given
Method: (§1) LB100, LB102 or LB107 are tested in an animal model of cardiac ischemia-reperfusion injury.
The mammalian tissue includes, but is not limited to, cardiac tissue, brain tissue and endothelial tissue.

heart = assay: Example 5: tissue damage from reperfusion injury in the heart after myocardial infarction; format: in vivo; settings: following myocardial infarction; no data given
Method: as §1

PP2A [5] = settings: xenografts of human tumor cells in mice, given parenterally; cited from earlier work
cancer cells = settings: mouse model systems; cited from earlier work
Akt [6] = settings: Lu et al. 2009; US patent; cited from earlier work
[7] = Toxicokinetic studies in rats; format: in vivo; settings: doses known to inhibit PP2A in tissue of rodents
[8] = Toxicokinetic studies in dogs; format: in vivo; settings: doses known to inhibit PP2A in tissue of rodents
[9] = tested on: distal end of a flap graft; assay: Survival of tissue at the distal end of a skin flap graft (necrosis by planimetry and photographs); format: in vivo, in-bred rats
Method: An ALZET pump (model 1007D, reservoir volume 100 ul) was implanted subcutaneously under anesthesia subcutaneously four days before creating a skin flap again under anesthesia. The pump in control animals contained sodium chloride and the pump in treated animals contained 0.55 mg of LB-100. The pump delivers 0.5 ul/hour+/−10% so each animal received about 12 ul/day for 8 days, 4 days prior to raising the graft and for the first 4 days after creation of the graft. There were 10 animals in each group.
The animals were sacrificed on day 7 following creation of the flap, the amount of necrosis at the end of the flap was measured by planimetry. The area of necrosis at the end of the flap was divided by total surface area of the entire flap and expressed as a percentage.
The visual appearance of the flaps was also inspected. FIGS. 1a-j show control rats 1-10 on day 7 and FIGS. 2a-j show treatment rats 1-10 on day 7. The treatment rats had received LB-100.

PP2A [10] = settings: in vitro in human cancer cells; cited from earlier work
PP1 = settings: Lu et al. 2009(a); cited from earlier work
rabbit cells = rabbit cells in vitro; cited from earlier work
pig cells = pig cells in vitro; cited from earlier work
[11] = tested on: cardiac tissue (myocardium); settings: given before or after onset of oxygen deprivation, cited from earlier work
pig myocardium = settings: cited from earlier work
[12] = young and aged rats; cited from earlier work
[13] = tested on: mouse skeletal muscle endothelial cells; settings: cited from earlier work
endothelial barrier = settings: septic insult; concentration that inhibits PP2A activity; cited from earlier work

Sequence of PP2A (Homo sapiens, UniProt P67775) (P67775 whole entry): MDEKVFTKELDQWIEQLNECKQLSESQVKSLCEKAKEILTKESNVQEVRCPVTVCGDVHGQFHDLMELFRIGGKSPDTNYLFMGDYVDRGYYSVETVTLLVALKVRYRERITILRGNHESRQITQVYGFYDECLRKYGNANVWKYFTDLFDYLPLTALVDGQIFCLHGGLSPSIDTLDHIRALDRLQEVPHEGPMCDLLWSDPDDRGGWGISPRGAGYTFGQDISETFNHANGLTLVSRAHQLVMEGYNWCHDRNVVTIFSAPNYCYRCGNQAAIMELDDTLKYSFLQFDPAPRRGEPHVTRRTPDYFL

SMILES: COC(=O)C1C(C(=O)N2CCN(C)CC2)[C@@H]2CC[C@H]1O2 (stereo in doubt) [LB-107, 3-(4-Methylpiperazine-1-carbonyl)-7-oxa-bicyclo[2,2,1]heptane-2-carboxylic acid methyl ester]
- Endothelial dysfunction associated with reperfusion injury [1]: reduce endothelial dysfunction
- Vascular leakage associated with reperfusion injury [1]: reduce vascular leakage
- Activation of Akt (Akt [2]): increase activation of Akt
- Dephosphorylation and inactivation of Akt by PP2A (Akt [2]): reduce dephosphorylation and inactivation of Akt
- Phosphorylation of Akt (Akt [2]): increase phosphorylation of Akt
- PP2A inhibition (PP2A [3]): effective inhibitors of PP2A
- Oral activity [4]: active when given orally
- Reperfusion injury (mammalian tissue): reduce reperfusion injury
- Tissue damage associated with reperfusion injury in the heart (heart): reduce tissue damage; also recorded: prevent tissue damage

SMILES: CN1CCN(C(=O)C2C(C(=O)O)[C@H]3CC[C@@H]2O3)CC1 (some centres unmarked) [LB-100]
- PP2A inhibition (PP2A [5]): inhibitors of PP2A
- Endothelial dysfunction associated with reperfusion injury [1]: reduce endothelial dysfunction
- Vascular leakage associated with reperfusion injury [1]: reduce vascular leakage
- Growth of cancer cells (cancer cells): inhibit the growth of cancer cells
- Phosphorylation of Akt (Akt [6]): increased phosphorylation of Akt
- Toxicity [7]: acceptable and reversible toxicity
- Activation of Akt (Akt [2]): increase activation of Akt
- Dephosphorylation and inactivation of Akt by PP2A (Akt [2]): reduce dephosphorylation and inactivation of Akt
- Phosphorylation of Akt (Akt [2]): increase phosphorylation of Akt
- PP2A inhibition (PP2A [3]): effective inhibitors of PP2A
- Reperfusion injury (mammalian tissue): reduce reperfusion injury
- Toxicity [8]: acceptable and reversible toxicity
- Average area of necrosis (%) ([9]; average of 10 treatment rats, day 7, control average 41.0627243): 31.97%
- Visual appearance of flaps (photographs) ([9]; day 7, distal ends of the flap, vs control rats): less extensive necrosis
- Necrosis (area by planimetry) ([9]; individual treatment rats 1-10, day 7 after flap creation, pump with 0.55 mg LB-100): 64147 and 66886 and 77327 and 91515 and 112275 and 55473 and 63777 and 66144 and 37181 and 77089
- Area of necrosis at the end of the flap divided by total surface area of the flap (%) ([9]; individual treatment rats 1-10, day 7 after flap creation, pump with 0.55 mg LB-100, about 12 ul/day for 8 days): 31.96% and 28.88% and 30.7% and 39.47% and 40.43% and 30.66% and 33.77% and 25.95% and 24.03% and 33.9%
- Mean decrease in extent of necrosis in treated animals ([9]; treated vs control rats, planimetry, day 7): 22%
- Tissue damage associated with reperfusion injury in the heart (heart): reduce tissue damage; also recorded: prevent tissue damage
- PP2A inhibition (PP2A [10]): inhibitors of PP2A

SMILES: CC(C)(C)OC(=O)N1CCN(C(=O)C2C(C(=O)O)[C@H]3CC[C@@H]2O3)CC1 (some centres unmarked) [LB-102]
- PP2A inhibition (PP2A [5]): inhibitors of PP2A
- Endothelial dysfunction associated with reperfusion injury [1]: reduce endothelial dysfunction
- Vascular leakage associated with reperfusion injury [1]: reduce vascular leakage
- Growth of cancer cells (cancer cells): inhibit the growth of cancer cells
- Phosphorylation of Akt (Akt [6]): increased phosphorylation of Akt
- Activation of Akt (Akt [2]): increase activation of Akt
- Dephosphorylation and inactivation of Akt by PP2A (Akt [2]): reduce dephosphorylation and inactivation of Akt
- Phosphorylation of Akt (Akt [2]): increase phosphorylation of Akt
- IC50 (PP2A [3]; read-out: IC50 PP2A, Lu et al. 2009(a)): ~0.4 µM
- PP2A inhibition (PP2A [3]): effective inhibitors of PP2A
- IC50 (PP1): ~8 µM
- Reperfusion injury (mammalian tissue): reduce reperfusion injury
- Tissue damage associated with reperfusion injury in the heart (heart): reduce tissue damage; also recorded: prevent tissue damage
- PP2A inhibition (PP2A [10]): inhibitors of PP2A

SMILES: COC[C@@H]([C@H](O)[C@H](O)C(=O)NCC[C@H](C)c1nc(/C=C/C[C@@H]2O[C@]3(C[C@@H](O)[C@@H]2C)O[C@H]([C@H](C[C@H](O)[C@H](C)[C@H](O)[C@H](C)/C=C(C)/C(C)=C/C=C/C(C)=C\C#N)OC)[C@H](OP(=O)(O)O)C3(C)C)co1)N(C)C [calyculin A]
- Protection from injury (rabbit cells): afforded protection from injury
- Protection from injury (pig cells): afforded protection from injury

SMILES: C[C@@](O)(/C=C/[C@H]1CC=CC(=O)O1)[C@@H](C[C@@H](O)\C=C/C=C\C=C\CO)OP(=O)(O)O [fostriecin]
- Protection from injury (rabbit cells): afforded protection from injury
- Size of infarction of cardiac tissue / injury [11]: minimizes the size of infarction
- Size of infarction of cardiac tissue / injury ([11]; listed as FOS): reduces injury
- Protection from injury (pig cells): afforded protection from injury

SMILES: C=C1[C@@H](O)[C@@H]2O[C@]3(CC[C@H](/C=C/[C@@H](C)[C@@H]4CC(C)=C[C@@]5(O[C@H](C[C@@](C)(O)C(=O)O)CC[C@H]5O)O4)O3)CC[C@H]2O[C@@H]1[C@@H](O)C[C@H](C)[C@H]1O[C@@]2(CCCCO2)CC[C@H]1C [okadaic acid]
- Activity of phosphatases, especially PP2A, in heart tissue (pig myocardium; heart tissue infused with the inhibitor): decreased
- Protection of myocardium against ischemia (pig myocardium; pig, in vivo model): protected pig myocardium against ischemia
- Cellular death following induced MI [12]: reduced cellular death
- Endothelial barrier function [13]: preserved endothelial barrier function
- Endothelial barrier disruption (endothelial barrier): decreases endothelial barrier disruption
